Source: patent US20030158254A1, “Engineering absorption of therapeutic compounds via colonic transporters” (XenoPort, Inc., priority 2002, published 2003)

Tests used:
[1] = target: T1, hSMVT (Homo sapiens, UniProt Q9Y289); assay: Transport currents in SMVT-expressing Xenopus oocytes, normalized to biotin; format: cell-based; details: response relative to biotin, transporter-expressing oocytes, test compound 0.5 mM
T1 sequence (Q9Y289 1-635): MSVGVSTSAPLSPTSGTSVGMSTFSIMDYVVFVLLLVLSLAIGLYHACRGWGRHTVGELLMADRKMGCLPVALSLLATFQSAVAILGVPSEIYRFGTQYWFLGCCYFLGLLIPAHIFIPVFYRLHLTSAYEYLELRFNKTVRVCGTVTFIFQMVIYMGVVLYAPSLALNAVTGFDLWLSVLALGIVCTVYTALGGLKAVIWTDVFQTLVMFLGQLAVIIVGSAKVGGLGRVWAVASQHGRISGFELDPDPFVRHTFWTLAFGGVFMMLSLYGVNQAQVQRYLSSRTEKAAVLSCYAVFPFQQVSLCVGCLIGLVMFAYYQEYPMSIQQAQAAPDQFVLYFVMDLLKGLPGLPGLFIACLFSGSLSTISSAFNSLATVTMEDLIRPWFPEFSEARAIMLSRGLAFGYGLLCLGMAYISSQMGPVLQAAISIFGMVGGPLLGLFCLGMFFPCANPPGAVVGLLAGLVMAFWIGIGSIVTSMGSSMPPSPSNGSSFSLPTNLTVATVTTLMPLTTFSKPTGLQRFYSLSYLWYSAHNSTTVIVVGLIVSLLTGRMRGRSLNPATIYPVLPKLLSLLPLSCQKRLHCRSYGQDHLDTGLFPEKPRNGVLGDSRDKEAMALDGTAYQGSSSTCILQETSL
Description: The complete open reading frame of human ATBO+(SLC6A14) and SMVT (SLC5A6) were amplified from human cDNA prepared from liver or intestine mRNA. Gene-specific oligonucleotide primers were designed against Genbank sequences (AF151978 and NM-021095). Amplified PCR products were cloned into a modified version of the mammalian expression vector pcDNA3 (termed pMO) that was engineered to contain the 5′ and 3′ untranslated regions from the Xenopus beta-globin gene. All clones were completely sequenced and tested for function by transient transfection in HEK293 cells.
cRNA for oocyte expression was prepared by linearization of plasmid cDNA and in vitro transcription using T7 polymerase (Epicentre Ampliscribe kit). Xenopus oocytes were prepared and maintained as previously described (Collins et al., PNAS […]:5456-5460 (1997)) and injected with 10-30 ng RNA. Transport currents were measured 2-6 days later using two-electrode voltage-clamp (Axon Instruments). All experiments were performed using a modified oocyte Ringers solution (90 mM NaCl, 2 mM KCl, 1.8 mM CaCl2, 1 mM MgCl2, and 10 mM Na HEPES, pH 7.4; in Na^+-free solutions 90 mM choline chloride was substituted for NaCl). The membrane potential of oocytes was held at −60 mV and current traces acquired using PowerLab software (AD Instruments). Full 7-concentration dose-responses were performed for each compound. […] Half-maximal concentrations were calculated using non-linear regression curve fitting software (Prism) with the Hill co-efficient fixed to 1. To ensure that currents were specific for the over-expressed transporter, all compounds were tested against uninjected oocytes. Since both ATBO+ and SMVT require Na^+ for transport, we confirmed transport specificity by application of the compounds in a Na^+-free solution.
In vitro transport data for selected compounds on hSMVT-expressing cells

[2] = Uptake of compounds through the rat colon (intracolonic dosing, gabapentin in blood by LC/MS/MS); format: in vivo; details: dose equivalent to 25 mg gabapentin per kg, FIG. 3A
Procedure: Rats were obtained commercially and were pre-cannulated in the both the ascending colon and the jugular vein. Animals were conscious at the time of the experiment. All animals were fasted overnight and until 4 hours post-dosing. Prodrugs were administered as a solution (in water or polyethylene glycol 400) directly into the colon via the cannula at a dose equivalent to 25 mg of gabapentin per kg. Blood samples (0.5 mL) were obtained from the jugular cannula at intervals over 8 hours and were quenched immediately by addition of acetonitrile/methanol to prevent further conversion of the prodrug. Blood samples were analyzed as described in the attached sample analysis summary.
1. In blank 1.5 mL eppendorf tubes, add 300 μL of a 50/50 mixture of acetonitrile/methanol and 20 μL of the p-chlorophenylalanine as internal standard.
2. Rat blood was collected at different time points and immediately 100 μL of blood was added into the eppendorf tube and vortex to mix.
3. 10 μL of the gabapentin standard solution (0.04, 0.2, 1, 5, 25, 100 μg/mL) was added to 90 μL of blank rat blood to make up a final calibration standard (0.004, 0.02, 0.1, 0.5, 2.5, 10 μg/mL). […]
API 2000 LC/MS/MS mass spectrometer equipped with Shidmadzu 10ADVp binary pumps and an autosampler (CTC Analytics AG, High Throughput Screening-PAL) were used in the analysis. […] The peaks were integrated by the Analyst 1.1 quantitation software.

[3] = target: T1, hSMVT; assay: Radiolabeled competition assay in SMVT-expressing CHO cells; format: cell-based
Description: The complete open reading frame of human ATBO+(SLC6A14) and SMVT (SLC5A6) were amplified from human cDNA prepared from liver or intestine mRNA. […] Amplified PCR products were cloned into a modified version of the mammalian expression vector pcDNA3 (termed pMO) that was engineered to contain the 5′ and 3′ untranslated regions from the Xenopus beta-globin gene. All clones were completely sequenced and tested for function by transient transfection in HEK293 cells.
For cell uptake studies, stable CHOK1 clones were seeded into polylysine coated 96-well microtitre plates and grown for 2-3 days. Cells were incubated with experimental solutions (combinations of radiolabeled and unlabeled compounds) for 30 minutes at room temperature, washed four times, and lysed in scintillation solution. Accumulation of radiolabeled molecules was measured in a microtitre scintillation plate reader (Perkin Elmer). Inhibition constants (IC50s) were calculated using curve-fitting software (Prism).

[4] = test system: HEK cells; assay: pH assay of uptake by transporters naturally expressed in HEK cells, with and without phloretin; format: cell-based, human; details: phloretin 0.5 mM, FIG. 1
Procedure: Although HEK's are a kidney derived cell line, they express some of the same transporters as the colon and can be used as a preliminary screen to identify substrates of colon-expressed transporters.
Cells were seeded at 100,000/well in 96 black, clear bottom plate overnight and washed twice in 100 μL buffer I at room temperature.
Cells were loaded with […] 2,7-bis-(2-carboxyethyl)-5-carboxyfluoroscein acetoxymethyl ester (BCECF AM) (resuspended in 50:50 dimethylsulfoxide:Pluronic™ surfactant mixture) in buffer 1 for 15 min. at 37° C. at 50 μL/well.
The rest of the protocol was performed at room temperature.
Cells were washed twice in buffer 2 at 50 μL/well. A first reading was taken in FLEX station in the buffer 2 at two sets of fluorescence excitation/emission wavelengths, 440/535 and 490/535, with 50 μL buffer/well. […] A second reading was taken in FLEX station at above settings (T0). […] A third reading was taken in FLEX station at above settings (T1). […]
For each well, values for A, B and C were calculated using the T0 and T1 data and the following equations:
A=measured fluorescence at excitation/emission wavelengths 440/535−background
B=measured fluorescence at excitation/emission wavelengths 490/535−background
The C values for the T0 and T1 data were used to determine the percent decrease in fluorescence at T1 relative to T0. […]

## NCC1(CC(=O)O)CCCCC1 [Gabapentin, reference compound]
[1]
  % Max. (Biotin): 0%
[2]
  Colonic uptake determined from plasma concentration of gabapentin: not taken up significantly

## CC(=O)OC(C)OC(=O)NCC1(CC(=O)O)CCCCC1 (stereo not drawn) [Compound IV, gabapentin acetoxyethyl carbamate]
[3]
  IC50: 80 µM

## CC(C)(C)C(=O)OCOC(=O)NCC1(CC(=O)O)CCCCC1 [Compound I, gabapentin pivaloxymethyl carbamate]
[4]
  Uptake by HEK cells in presence and absence of transporter inhibitor phloretin: phloretin substantially inhibits uptake of Compound I
[1]
  % Max. (Biotin): 21%
[2]
  Colonic uptake determined from plasma concentration of gabapentin: taken up best
